Test results from the supplement of paper PMC6045584.
± gives the standard deviation of the averaged measurements.

How the values were obtained:
[1] = compound: CS(=O)(=O)CCNCc1ccc(-c2ccc3ncnc(Nc4ccc(OCc5cccc(F)c5)c(Cl)c4)c3c2)o1 [LAPATINIB]; assay: surviving fraction relative to DMSO-only wells; higher = less growth inhibition; details: exposure time: 5 days
How it was run: (§1)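 Tumour cell lines were seeded in log phase at 250–500 cells per well into 384-well plates. Starting 24 hours later, inhibitors were present continuously for five days at 0.5, 1, 5, 10, 50, 100, 500 and 1000 nM. Surviving fraction, from CellTiter-Glo luminescence, is normalised to the median of DMSO-only wells. Three screens per line were required, with replicate Pearson r >0.7 and median Z' >0.3 for a line to be kept.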

[2] = compound: Nc1ncn([C@H]2C[C@H](O)[C@@H](CO)O2)c(=O)n1 [DECITABINE]; assay: as above; details: exposure time: 5 days
How it was run: as §1

Row | Test System | surviving fraction ([1]; 0.5 nM) | surviving fraction ([1]; 1 nM) | surviving fraction ([1]; 5 nM) | surviving fraction ([1]; 10 nM) | surviving fraction ([1]; 50 nM) | surviving fraction ([1]; 100 nM) | surviving fraction ([1]; 500 nM) | surviving fraction ([1]; 1000 nM) | surviving fraction ([2]; 0.5 nM) | surviving fraction ([2]; 1 nM) | surviving fraction ([2]; 5 nM) | surviving fraction ([2]; 10 nM) | surviving fraction ([2]; 50 nM) | surviving fraction ([2]; 100 nM) | surviving fraction ([2]; 500 nM) | surviving fraction ([2]; 1000 nM)
1 | CCK81 LARGE INTESTINE | 0.728 ± 0.083 | 0.751 ± 0.054 | 0.826 ± 0.17 | 0.751 ± 0.074 | 0.65 ± 0.16 | 0.536 ± 0.024 | 0.082 ± 0.017 | 0.0653 ± 0.0081 | 0.759 ± 0.099 | 0.761 ± 0.034 | 0.578 ± 0.11 | 0.707 ± 0.12 | 0.367 ± 0.058 | 0.348 ± 0.035 | 0.308 ± 0.035 | 0.286 ± 0.094
2 | G292 BONE | 0.973 ± 0.011 | 1.02 ± 0.052 | 1.03 ± 0.022 | 1.03 ± 0.026 | 1.02 ± 0.029 | 0.999 ± 0.02 | 0.967 ± 0.077 | 0.964 ± 0.015 | 0.958 ± 0.057 | 0.953 ± 0.026 | 0.924 ± 0.037 | 0.922 ± 0.025 | 0.711 ± 0.0099 | 0.678 ± 0.043 | 0.571 ± 0.039 | 0.543 ± 0.026
3 | HCC38 BREAST | 1.03 ± 0.17 | 0.933 ± 0.042 | 1 ± 0.35 | 1.09 ± 0.14 | 0.873 ± 0.13 | 0.776 ± 0.097 | 0.757 ± 0.13 | 0.794 ± 0.19 | 1.37 ± 0.092 | 1.14 ± 0.13 | 1.13 ± 0.098 | 0.937 ± 0.044 | 0.781 ± 0.019 | 0.656 ± 0.027 | 0.441 ± 0.0081 | 0.409 ± 0.064
4 | HCC70 BREAST | 1.05 ± 0.075 | 1.1 ± 0.076 | 1.16 ± 0.069 | 1.15 ± 0.036 | 1.05 ± 0.07 | 1.13 ± 0.044 | 0.99 ± 0.047 | 0.941 ± 0.058 | 1.07 ± 0.12 | 0.991 ± 0.14 | 1.1 ± 0.05 | 1.02 ± 0.092 | 0.967 ± 0.024 | 0.956 ± 0.087 | 0.844 ± 0.026 | 0.679 ± 0.076
5 | HMLE3 BREAST | 1.04 ± 0.1 | 1.09 ± 0.074 | 1.05 ± 0.065 | 1.07 ± 0.098 | 1.04 ± 0.041 | 1.14 ± 0.13 | 0.992 ± 0.084 | 0.966 ± 0.046 | 1.1 ± 0.049 | 1.03 ± 0.082 | 1.14 ± 0.03 | 1.14 ± 0.058 | 0.95 ± 0.12 | 0.922 ± 0.051 | 0.605 ± 0.055 | 0.551 ± 0.054
6 | HMT3552 BREAST | 1.03 ± 0.033 | 1.02 ± 0.073 | 1.06 ± 0.026 | 1.04 ± 0.075 | 1.02 ± 0.014 | 1.05 ± 0.083 | 0.861 ± 0.12 | 0.944 ± 0.074 | 1.06 ± 0.029 | 1.024 ± 0.01 | 1.09 ± 0.05 | 1.02 ± 0.057 | 1.27 ± 0.029 | 1.21 ± 0.037 | 1.18 ± 0.06 | 1.14 ± 0.028
7 | HS57T BREAST | 0.975 ± 0.054 | 1 ± 0.022 | 1.07 ± 0.074 |  | 1.03 ± 0.044 | 1.09 ± 0.044 | 0.97 ± 0.04 | 0.933 ± 0.037 | 0.976 ± 0.049 | 0.99 ± 0.026 | 1.06 ± 0.027 | 0.972 ± 0.022 | 0.923 ± 0.086 | 0.904 ± 0.091 | 0.767 ± 0.045 | 0.696 ± 0.078
8 | HS578T BREAST | 1.19 ± 0.11 | 1.03 ± 0.045 | 1.11 ± 0.15 | 0.871 ± 0.14 | 1.04 ± 0.048 | 1.08 ± 0.013 | 0.941 ± 0.052 | 1.05 ± 0.15 | 0.882 ± 0.16 | 0.838 ± 0.018 | 0.812 ± 0.079 | 0.837 ± 0.077 | 0.98 ± 0.071 | 0.943 ± 0.2 | 0.905 ± 0.08 | 1.02 ± 0.064
